Experiment [1] concerns INS-1 insulin-secreting β-cells. Put plainly: Glucose (8.3 mmol·L^−1)-stimulated insulin secretion in INS-1 cells (HTRF insulin assay). In kind it is cell-based. The conditions noted are these: 8.3 mmol·L^−1 glucose; for activity at 2 µM / activity at 20 µM: Rattus norvegicus, INS1, 1 h, read-out: % control response (glucose-stimulated insulin secretion); for activity at 2 µM / activity at 20 µM / % control response (glucose-stimulated insulin secretion): control = glucose alone. On the procedure: Cells were seeded in 24-well plates (4×10^5 cells per well) and were used for experiments after 5 days of culture.
(§1) Cells were incubated for 1 h (5% CO2, 37° C.) in KRB medium containing 8.3 mmol·L^−1 glucose (glucose-stimulated secretion) in the presence or absence of the compounds tested. At the end of the 1 h incubation period, the medium was sampled and stored at −20° C. until the insulin assay. Insulin concentration in cell supernatants was determined using the homogeneous time resolved fluorescence technology (HTRF), according to the manufacturer's instructions (HTRF insulin assay kit, Cisbio International, Bagnols-sur-Ceze, France). Briefly, two anti-insulin antibodies were used; one labelled with Eu^3+-Cryptate and one labelled with XL665 recognizing distinct epitopes. When these two fluorophores bind to insulin molecules, the two antibodies come into close proximity, allowing fluorescence resonance energy transfer (FRET) to occur between the Eu^3+-Cryptate and the XL665. This FRET increases proportionally with the insulin concentrations. All the experiments were performed at least in quadruplicate.
For the determination of insulin secretion, cells were incubated for 1 h (5% CO2, 37° C.) in KRB medium containing either 1.4 mmol·L^−1 glucose (low-glucose) or 8.3 mmol·L^−1 glucose (glucose-stimulated secretion) in the presence or absence of the compounds tested. At the end of the 1 h incubation period, mediums were sampled and stored at −20° C. until the insulin assay.
A general note: Time-resolved FRET reads energy transfer from a long-lived donor to a nearby acceptor.

For experiment [2] the test system is unchanged. The settings on record: Youl et al., 2010; cited from earlier work.
The test system is the same in experiment [3]. In words: Glibenclamide-stimulated insulin secretion in INS-1 cells. In kind it is cell-based. The conditions noted are these: glibenclamide 0.01 μmol·L^−1. The method, then: The insulin-secreting cell line INS-1 (a gift from Professor C. B. Wollheim) was cultured in RPMI-1640, supplemented with 10% fetal calf serum (FCS), 100 U·mL^−1 penicillin, 100 μg·mL^−1 streptomycin, 2 mmol·L^−1 L-glutamine, 10 mmol·L^−1 HEPES, 1 mmol·L^−1 sodium pyruvate, and […] 2-mercaptoethanol, as previously described by Youl et al. (2010). Cells were seeded in 24-well plates (4×10^5 cells per well) and were used for experiments after 5 days of culture.
as §1, with “Before the treatment, RPMI medium was removed and the cells were washed twice with HEPES-balanced Krebs-Ringer bicarbonate buffer (KRB) containing (in mmol·L^−1): 123 NaCl, 5.4 KCl, 1.3 KH2PO4, 2.7 MgSO4, 2.9 CaCl2, 5 NaHCO3 and 20 HEPES, pH 7.5, with 2 g·L^−1 bovine serum albumin (KRB/BSA). Cells” for “Cells”
Material and methods were the same as described in example 1. For the determination of insulin secretion, cells were incubated for 1 h (5% CO2, 37° C.) in KRB medium containing 1.4 mmol·L^−1 glucose (low-glucose condition) and 0.01 μmol·L^−1 glibenclamide (glibenclamide-stimulated secretion), in the presence or absence of urolithins. At the end of the 1 h incubation period, the medium was sampled and stored at −20° C. until the insulin assay. Insulin concentration in cell supernatants was determined as described in Example 1.

The structures appear in SMILES notation. Values joined by “and” are separate entries in the source; they are usually repeats but may differ in a detail not shown here. Identical values can stand only once.

`O=C(O)/C=C/c1ccc(O)c(O)c1` [Caffeic acid]: the activity at 2 µM in experiment [1] (compound 2 μM) came out at 104%. Also, the activity at 20 µM in experiment [1] (compound 20 μM) was 105%.
As to `O=C(O)C(O)Cc1ccc(O)cc1` (stereo not drawn) [3-(4′-hydroxyphenyl)lactic acid], in experiment [1] (compound 2 μM), the activity at 2 µM came out at 97%. Further, in experiment [1] (compound 20 μM), the activity at 20 µM is 79%.
`O=C(O)c1ccc(O)c(O)c1` [Protocatechuic acid]: the activity at 2 µM in experiment [1] (compound 2 μM) amounted to 108%. Also, the activity at 20 µM in experiment [1] (compound 20 μM) amounted to 92%.
Turning to `O=C(O)Cc1cccc(O)c1` [3-hydroxyphenylacetic acid], the activity at 2 µM in experiment [1] (compound 2 μM) turned out to be 98%. Further, in experiment [1] (compound 20 μM), the activity at 20 µM is 104%.
In the case of `COc1cc(/C=C/C(=O)NCC(=O)O)ccc1O` [Feruloylglycine], in experiment [1] (compound 2 μM), the activity at 2 µM was determined as 102%. Further, in experiment [1] (compound 20 μM), the activity at 20 µM amounted to 102%.
As for `O=C(O)CCc1ccc(O)c(O)c1` [Dihydrocaffeic acid], the activity at 2 µM in experiment [1] (compound 2 μM) was found to be 110%. In addition, the activity at 20 µM in experiment [1] (compound 20 μM) came out at 83%.
`Oc1ccccc1O` [Pyrocatechol]: the activity at 2 µM in experiment [1] (compound 2 μM) came out at 87%. Further, in experiment [1] (compound 20 μM), the activity at 20 µM is 96%.
Regarding `COc1cc(/C=C/C(=O)O)ccc1O` [Ferulic acid], the activity at 2 µM in experiment [1] (compound 2 μM) was determined as 109%. The activity at 20 µM in experiment [1] (compound 20 μM) was found to be 115%.
For the compound `COc1ccc(/C=C/C(=O)NCC(=O)O)cc1O` [Isoferuloylglycine], in experiment [1] (compound 2 μM), the activity at 2 µM was 80%. In addition, the activity at 20 µM in experiment [1] (compound 20 μM) is 82%.
Regarding `Oc1ccc(C=Cc2cc(O)cc(O)c2)cc1` [resveratrol], in experiment [2], the “prevention of H2O2-induced insulin secretion impairment” value (shortened to “prevention”) is “not”.
For `O=C(O)CNC(=O)c1ccc(O)cc1` [4′-hydroxyhippuric acid], the entries for the “% control response (glucose-stimulated insulin secretion)” value (from here on “% control response”) in experiment [1] (compound 2 μM) and in experiment [1] (compound 20 μM) were 98.00% and 111.00%, respectively.
In the case of `O=c1oc2c(O)c(O)cc3c(=O)oc4c(O)c(O)cc1c4c23` [Ellagic acid, reference compound], the activity at 2 µM in experiment [1] (compound 2 μM) was determined as 93.4%. In addition, the activity at 20 µM in experiment [1] (compound 20 μM) worked out at 101%. Further, the “ability to amplify glucose-stimulated insulin secretion” value in experiment [1] (blind screening, 2 and 20 μM) is “not active”.
For the compound `OCCc1ccc(O)cc1` [Tyrosol], the activity at 2 µM in experiment [1] (compound 2 μM) amounted to 86%. The activity at 20 µM in experiment [1] (compound 20 μM) came to 89%.
Consider `O=c1c(O)c(-c2ccc(O)c(O)c2)oc2cc(O)cc(O)c12` [Quercetin, reference compound], for which, in experiment [1] (compound 2 μM), the activity at 2 µM was 93.8%. The activity at 20 µM in experiment [1] (compound 20 μM) is 237%. Further, the “prevention” value in experiment [2] is “able to prevent H2O2-induced insulin secretion impairment”.
Turning to `COc1cc(CC(=O)O)ccc1O` [Homovanillic acid], the activity at 2 µM in experiment [1] (compound 2 μM) came to 93%. Further, the activity at 20 µM in experiment [1] (compound 20 μM) was 83%.
Regarding `O=C(O)C(O)c1ccc(O)cc1` (stereo not drawn) [4′hydroxymandelic acid], the “% control response” value in experiment [1] (compound 2 μM) is 103.00%; in experiment [1] (compound 20 μM), 86.00%.
Turning to `COc1cc(CCC(=O)O)ccc1O` [Dihydroferulic acid], in experiment [1] (compound 2 μM), the activity at 2 µM worked out at 106%. Further, the activity at 20 µM in experiment [1] (compound 20 μM) is 103%.
For `O=C(O)c1ccc(O)cc1` [4-hydroxybenzoic acid], in that order: 96% and 98%.
Regarding `O=C(O)Cc1ccc(O)c(O)c1` [3,4-dihydroxyphenylacetic acid], in experiment [1] (compound 2 μM), the activity at 2 µM came to 105%. Moreover, the activity at 20 µM in experiment [1] (compound 20 μM) turned out to be 84%.
As to `O=C(O)Cc1ccc(O)cc1` [4′-hydroxyphenylacetic acid], the “% control response” value was 102.00% and 107.00% in experiment [1] (compound 2 μM); 74.00% and 81.00% in experiment [1] (compound 20 μM).
With `Oc1cc(O)cc(O)c1` [Phloroglucinol], the activity at 2 µM in experiment [1] (compound 2 μM) was 100%. Further, the activity at 20 µM in experiment [1] (compound 20 μM) worked out at 105%.
Take `CC(=O)N[C@@H](CS)C(=O)O` [N-acetyl cysteine]: the “prevention” value in experiment [2] was “not”.
Take `O=C(O)[C@H]1O[C@@H](Oc2c(-c3ccc(O)c(O)c3)oc3cc(O)cc(O)c3c2=O)[C@H](O)[C@@H](O)[C@@H]1O` [Quercetin-3 -glucuronide]: the “% control response” value worked out at 89.00% in experiment [1] (compound 2 μM) and 103.00% in experiment [1] (compound 20 μM).
`Oc1cccc(O)c1O` [Pyrogallol]: in experiment [1] (compound 2 μM), the activity at 2 µM was 93%. Besides, in experiment [1] (compound 20 μM), the activity at 20 µM was found to be 98%.
As to `COc1ccc(Cl)cc1C(=O)NCCc1ccc(S(=O)(=O)NC(=O)NC2CCCCC2)cc1` [glibenclamide, reference compound], the “increase of secretion as compared to low-glucose condition” value in experiment [3] was 4/6.
As to `O=C(O)[C@H]1O[C@@H](Oc2c(-c3ccc(O)cc3)oc3cc(O)cc(O)c3c2=O)[C@H](O)[C@@H](O)[C@@H]1O` [Kaempferol-3 -glucuronide], the “% control response” value in experiment [1] (compound 2 μM) is recorded as 111.00%; in experiment [1] (compound 20 μM), 104.00%.
As to `COc1c(O)cc(C(=O)O)cc1O` [4-O-Methylgallic acid], in experiment [1] (compound 2 μM), the activity at 2 µM was found to be 104%. The activity at 20 µM in experiment [1] (compound 20 μM) worked out at 86%.
For `O=C(O)CCc1cccc(O)c1` [3-(3′-hydroxyphenyl)propionic acid], the activity at 2 µM in experiment [1] (compound 2 μM) came out at 98%. Also, the activity at 20 µM in experiment [1] (compound 20 μM) came out at 103%.
As for `COc1cc(C(=O)O)cc(O)c1O` [3-O-Methylgallic acid], the activity at 2 µM in experiment [1] (compound 2 μM) was 93%. The activity at 20 µM in experiment [1] (compound 20 μM) worked out at 105%.

The values are drawn from patent US11213508B2, “Compositions comprising urolithins and uses thereof for the stimulation of insulin secretion” (Centre National de la Recherche Scientifique (CNRS), priority 2013, dated 2022).
